Data from US20240199597A1, “SMALL MOLECULES FOR THE TREATMENT OF KINASE-RELATED DISEASES” (Athos Therapeutics, Inc., priority 2021, published 2024).

How the values were obtained:
786-O = test: Cancer cytotoxicity assay (Real-Time-Glo cell viability), 786-O; format: cell-based; conditions: Homo sapiens, 786-0; kidney cancer, 72 hr
Procedure: (§1) The cytotoxicity of Compounds 1, 3, 4, 6, 7, 8, 9, 10, 12 and 13 against cancer cell lines was determined. To determine the optimal plating density for cell viability assays, for each cell line, cells were counted and diluted to final densities of 2.5, 5, 10 and 20 thousand per 100 μL of their respective growth media per well in 96 well plates. The Promega Real-Time-Glo cell viability kit was used to determine the optimal concentration for cell plating so that each cell line would be within the linear part of its growth curve after 72 hrs in culture. For the determination of test compound IC50s, different cancer cell lines were plated in 96 well plates in the pre-determined optimal density for each cell line. Test compounds were then added at different concentrations for the creation of six-point curve and cell density was determined using the Promega Real-Time-Glo cell viability kit after 24, 48, and 72 hrs in culture.

MV4-11 = test: Cancer cytotoxicity assay (Real-Time-Glo cell viability), MV4-11; format: cell-based; conditions: Homo sapiens, leukemia cell, 72 hr
Procedure: as §1

A-498 = test: Cancer cytotoxicity assay (Real-Time-Glo cell viability), A-498; format: cell-based; conditions: Homo sapiens, A498; kidney cancer, 72 hr
Procedure: as §1

HCT-116 = test: Cancer cytotoxicity assay (Real-Time-Glo cell viability), HCT-116; format: cell-based; conditions: Homo sapiens, colorectal cancer cell line, 72 hr
Procedure: as §1

Kasumi-1 = test: Cancer cytotoxicity assay (Real-Time-Glo cell viability), Kasumi-1; format: cell-based; conditions: Homo sapiens, leukemia cell, 72 hr
Procedure: as §1

HT-29 = test: Cancer cytotoxicity assay (Real-Time-Glo cell viability), HT-29; format: cell-based; conditions: Homo sapiens, colorectal cancer cell line, 72 hr
Procedure: as §1

SKOV-3 = test: Cancer cytotoxicity assay (Real-Time-Glo cell viability), SKOV-3; format: cell-based; conditions: Homo sapiens, SK-OV-3; ovarian cancer cell line, 72 hr
Procedure: as §1

Kasumi-3 = test: Cancer cytotoxicity assay (Real-Time-Glo cell viability), Kasumi-3; format: cell-based; conditions: leukemia cell, 72 hr
Procedure: as §1

FLT3 = target: T1, FLT3 (Homo sapiens, UniProt P36888); test: Kinase assay (Eurofins DiscoverX KinaseProfiler / KdElect), FLT3; format: binding; conditions: read-out: FLT3 (Kd50 nM)
T1 construct: purchased Eurofins DiscoverX (contract service)
T1 sequence (P36888 27-993): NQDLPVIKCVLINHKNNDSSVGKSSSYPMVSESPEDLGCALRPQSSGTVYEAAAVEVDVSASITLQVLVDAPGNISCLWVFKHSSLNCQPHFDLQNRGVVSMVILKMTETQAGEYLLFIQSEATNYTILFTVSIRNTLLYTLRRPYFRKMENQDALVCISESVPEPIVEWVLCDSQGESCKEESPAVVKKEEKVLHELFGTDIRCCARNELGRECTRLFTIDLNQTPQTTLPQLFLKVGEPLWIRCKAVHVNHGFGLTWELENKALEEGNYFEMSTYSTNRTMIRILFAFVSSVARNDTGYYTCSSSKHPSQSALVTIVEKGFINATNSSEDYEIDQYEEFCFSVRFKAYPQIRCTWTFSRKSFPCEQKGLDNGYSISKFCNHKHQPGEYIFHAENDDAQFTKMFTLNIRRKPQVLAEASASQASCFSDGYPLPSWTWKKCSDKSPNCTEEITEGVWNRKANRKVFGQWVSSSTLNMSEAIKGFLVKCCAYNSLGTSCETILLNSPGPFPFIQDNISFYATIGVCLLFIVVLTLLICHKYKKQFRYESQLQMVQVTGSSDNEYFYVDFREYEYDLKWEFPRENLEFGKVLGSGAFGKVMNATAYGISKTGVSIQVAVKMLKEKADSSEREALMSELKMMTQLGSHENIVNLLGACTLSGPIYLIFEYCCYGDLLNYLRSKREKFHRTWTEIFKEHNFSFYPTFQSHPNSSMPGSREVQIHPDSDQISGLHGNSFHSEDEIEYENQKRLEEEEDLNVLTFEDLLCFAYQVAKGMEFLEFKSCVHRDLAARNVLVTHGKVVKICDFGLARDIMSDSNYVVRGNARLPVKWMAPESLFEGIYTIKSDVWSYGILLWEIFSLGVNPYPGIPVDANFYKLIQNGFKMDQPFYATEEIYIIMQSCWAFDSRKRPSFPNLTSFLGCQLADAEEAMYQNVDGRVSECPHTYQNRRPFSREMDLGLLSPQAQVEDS
Procedure: Stock solutions of the compounds being evaluated were prepared. The IC50 values were determined by the Eurofins DiscoverX services using either the KinaseProfiler or the KdElect kinase activity detection assays.

PLK4 = target: T2, PLK4 (Homo sapiens, UniProt O00444); test: Kinase inhibition assay (Eurofins DiscoverX KinaseProfiler / KdElect), PLK4; format: biochemical
T2 construct: purchased Eurofins DiscoverX (contract service)
T2 sequence (O00444 1-970): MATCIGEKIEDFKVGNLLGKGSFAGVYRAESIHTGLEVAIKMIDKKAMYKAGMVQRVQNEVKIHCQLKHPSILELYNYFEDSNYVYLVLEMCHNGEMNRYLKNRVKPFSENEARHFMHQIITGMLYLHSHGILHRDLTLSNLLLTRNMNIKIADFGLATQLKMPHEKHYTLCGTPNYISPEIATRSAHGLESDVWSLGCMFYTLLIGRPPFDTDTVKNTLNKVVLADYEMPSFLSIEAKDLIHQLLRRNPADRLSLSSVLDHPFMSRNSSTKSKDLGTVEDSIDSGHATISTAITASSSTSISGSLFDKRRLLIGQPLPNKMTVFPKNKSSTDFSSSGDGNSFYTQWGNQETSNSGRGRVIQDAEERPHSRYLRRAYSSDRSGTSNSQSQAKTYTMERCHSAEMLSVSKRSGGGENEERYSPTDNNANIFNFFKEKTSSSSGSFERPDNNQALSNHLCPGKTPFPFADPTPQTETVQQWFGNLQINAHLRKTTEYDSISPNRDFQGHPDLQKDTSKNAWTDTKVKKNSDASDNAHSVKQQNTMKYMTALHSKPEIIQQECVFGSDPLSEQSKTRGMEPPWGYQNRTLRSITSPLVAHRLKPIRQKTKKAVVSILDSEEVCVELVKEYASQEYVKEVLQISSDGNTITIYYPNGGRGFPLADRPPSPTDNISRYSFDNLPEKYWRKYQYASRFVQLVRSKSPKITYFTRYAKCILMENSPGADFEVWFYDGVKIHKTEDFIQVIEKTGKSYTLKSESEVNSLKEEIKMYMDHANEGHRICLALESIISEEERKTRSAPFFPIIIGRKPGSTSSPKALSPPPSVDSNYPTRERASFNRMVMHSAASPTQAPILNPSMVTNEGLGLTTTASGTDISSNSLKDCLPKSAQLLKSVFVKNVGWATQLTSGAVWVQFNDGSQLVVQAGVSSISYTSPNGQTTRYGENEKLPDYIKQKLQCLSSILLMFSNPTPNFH
Procedure: (§2) The activity of Compounds 1, 3, 4, 6, 7, 8, 9, 10 and 13 in inhibiting CLK1, CLK4, PLK4, and FLT3 kinases was determined. Stock solutions of the compounds being evaluated were prepared. The IC50 values were determined by the Eurofins DiscoverX services using either the KinaseProfiler or the KdElect kinase activity detection assays.

CLK4 = target: T3, CLK4 (Homo sapiens, UniProt Q9HAZ1); test: Kinase inhibition assay (Eurofins DiscoverX KinaseProfiler / KdElect), CLK4; format: biochemical
T3 construct: purchased Eurofins DiscoverX (contract service)
Procedure: as §2

CLK1 = target: T4, CLK1 (Homo sapiens, UniProt P49759); test: Kinase inhibition assay (Eurofins DiscoverX KinaseProfiler / KdElect), CLK1; format: biochemical
T4 construct: purchased Eurofins DiscoverX (contract service)
Procedure: as §2

OV-90 = test: Cancer cytotoxicity assay (Real-Time-Glo cell viability), OV-90; format: cell-based; conditions: Homo sapiens, ovarian cancer cell line, 72 hr
Procedure: as §1

T4 sequence (P49759 whole entry): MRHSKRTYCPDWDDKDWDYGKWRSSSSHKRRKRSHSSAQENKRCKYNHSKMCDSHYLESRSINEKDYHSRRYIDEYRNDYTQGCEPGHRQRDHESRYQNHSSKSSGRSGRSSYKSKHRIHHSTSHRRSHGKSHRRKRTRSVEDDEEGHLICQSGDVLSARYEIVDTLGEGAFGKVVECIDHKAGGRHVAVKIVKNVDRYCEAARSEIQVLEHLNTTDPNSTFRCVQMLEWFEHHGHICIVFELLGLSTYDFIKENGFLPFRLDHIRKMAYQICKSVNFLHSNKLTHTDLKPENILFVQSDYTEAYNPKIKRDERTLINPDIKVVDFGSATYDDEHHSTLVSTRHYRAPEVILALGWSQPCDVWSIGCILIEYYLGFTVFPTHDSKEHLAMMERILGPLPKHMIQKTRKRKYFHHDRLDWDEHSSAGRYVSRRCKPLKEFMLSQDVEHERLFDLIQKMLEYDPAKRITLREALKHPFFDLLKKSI
T3 sequence (Q9HAZ1 whole entry): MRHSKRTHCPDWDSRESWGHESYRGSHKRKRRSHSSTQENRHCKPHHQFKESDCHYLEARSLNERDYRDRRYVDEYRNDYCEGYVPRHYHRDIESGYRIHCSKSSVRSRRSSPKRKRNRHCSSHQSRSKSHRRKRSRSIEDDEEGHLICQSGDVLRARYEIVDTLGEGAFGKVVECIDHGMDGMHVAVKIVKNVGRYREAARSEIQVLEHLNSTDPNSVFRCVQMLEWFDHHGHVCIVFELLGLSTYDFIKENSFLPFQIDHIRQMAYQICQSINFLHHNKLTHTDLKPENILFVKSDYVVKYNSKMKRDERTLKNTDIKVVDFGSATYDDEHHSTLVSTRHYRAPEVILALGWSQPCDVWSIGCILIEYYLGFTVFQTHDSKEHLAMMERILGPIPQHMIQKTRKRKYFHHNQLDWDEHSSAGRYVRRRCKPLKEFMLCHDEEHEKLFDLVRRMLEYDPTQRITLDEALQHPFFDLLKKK

Kd (FLT3) | IC50 (PLK4) | IC50 (CLK4) | IC50 (CLK1) | SMILES | IC50 (786-O) | IC50 (MV4-11) | IC50 (A-498) | IC50 (HCT-116) | IC50 (Kasumi-1) | IC50 (HT-29) | IC50 (SKOV-3) | IC50 (Kasumi-3) | IC50 (OV-90)
1 to 5 µM | > 10000 nM | < 1000 nM | < 1000 nM | COc1cc2c(Nc3cc(C(C)C)[nH]n3)nc(N3CCC(F)(F)CC3)nc2cc1OCCCN1CCCC1 [Compound 13, 2-(4,4-difluoropiperidin-1-yl)-N-(5-isopropyl-1H-pyrazol-3-yl)-6-methoxy-7-(3-(pyrrolidin-1-yl)propoxy)quinazolin-4-amine] | 1000 to 5000 nM | < 1000 nM | 1000 to 5000 nM | 1000 to 5000 nM | 1000 to 5000 nM | 1000 to 5000 nM | 1000 to 5000 nM | 1000 to 5000 nM | 1000 to 5000 nM
5 to 10 µM | > 10000 nM | 5000 to 10000 nM | 1000 to 5000 nM | COc1cc2c(Nc3cc(C)[nH]n3)nc(N3CCC3)nc2cc1OCCCN1CCCC1 [Compound 4, 2-(Azetidin-1-yl)-6-methoxy-N-(5-methyl-1H-pyrazol-3-yl)-7-(3-(pyrrolidin-1-yl)propoxy)quinazolin-4-amine] | > 10000 nM | 5000 to 10000 nM | > 10000 nM | 1000 to 5000 nM | > 10000 nM | > 10000 nM | > 10000 nM | > 10000 nM | > 10000 nM
> 10 µM | > 10000 nM | < 1000 nM | < 1000 nM | COc1cc2c(Nc3ncc(C)s3)nc(N3CCC(F)(F)CC3)nc2cc1OCCCN1CCCC1 [Compound 9, N-(2-(4,4-difluoropiperidin-1-yl)-6-methoxy-7-(3-(pyrrolidin-1-yl)propoxy)quinazolin-4-yl)-5-methylthiazol-2-amine] | 1000 to 5000 nM | 1000 to 5000 nM | 1000 to 5000 nM | 5000 to 10000 nM | 1000 to 5000 nM | > 10000 nM | 1000 to 5000 nM | 1000 to 5000 nM | 5000 to 10000 nM
– | < 1000 nM | < 1000 nM | < 1000 nM | COc1cc2c(Nc3cc(C4CC4)[nH]n3)nc(N3CCC(F)(F)CC3)nc2cc1OCCCN1CCCC1 [Compound 6, N-(5-cyclopropyl-1H-pyrazol-3-yl)-2-(4,4-difluoropiperidin-1-yl)-6-methoxy-7-(3-(pyrrolidin-1-yl)propoxy)quinazolin-4-amine] | 1000 to 5000 nM | < 1000 nM | 1000 to 5000 nM | 1000 to 5000 nM | 1000 to 5000 nM | 1000 to 5000 nM | 1000 to 5000 nM | 1000 to 5000 nM | 1000 to 5000 nM
